In ChEMBL document CHEMBL5303573, “Mapping human microbiome drug metabolism by gut bacteria and their genes” (Nature, 2019):

Assay: The drug is tested on Collinsella aerofaciens strain: ATCC25986 for biotransformation. The drug concentrations were measured before and after a 12-h incubation by liquid-chromatography-coupled mass spectrometry (LC–MS)
Details: 2 µM

Structure (SMILES)	Bacterial Biotransformation
CC(C)NCC(O)c1ccc(NS(C)(=O)=O)cc1 (centres undefined) [SOTALOL]	Compound NOT metabolized
CN1CC(=O)N2[C@H](c3ccc4c(c3)OCO4)c3[nH]c4ccccc4c3C[C@@H]2C1=O	Compound NOT metabolized
O=P(O)(O)O.c1ccc(CN(CC2=NCCN2)c2ccccc2)cc1 [ANTAZOLINE PHOSPHATE]	Compound NOT metabolized
CC(C)OC(=O)C(C)(C)Oc1ccc(C(=O)c2ccc(Cl)cc2)cc1 [FENOFIBRATE]	Compound NOT metabolized

Assay: The drug is tested on Bacteroides coprophilus strain: DSM18228 for biotransformation. The drug concentrations were measured before and after a 12-h incubation by liquid-chromatography-coupled mass spectrometry (LC–MS)
Details: 2 µM

Structure (SMILES)	Bacterial Biotransformation
CN1CC(=O)N2[C@H](c3ccc4c(c3)OCO4)c3[nH]c4ccccc4c3C[C@@H]2C1=O	Compound NOT metabolized
O=P(O)(O)O.c1ccc(CN(CC2=NCCN2)c2ccccc2)cc1 [ANTAZOLINE PHOSPHATE]	Compound NOT metabolized

Details: bacteroides intestinalis, 12 h, 2 µM
Description: The drug is tested on Bacteroides intestinalis strain: DSM17393 for biotransformation. The drug concentrations were measured before and after a 12-h incubation by liquid-chromatography-coupled mass spectrometry (LC–MS)

Structure (SMILES)	Bacterial Biotransformation
CN1CC(=O)N2[C@H](c3ccc4c(c3)OCO4)c3[nH]c4ccccc4c3C[C@@H]2C1=O	Compound NOT metabolized
O=P(O)(O)O.c1ccc(CN(CC2=NCCN2)c2ccccc2)cc1 [ANTAZOLINE PHOSPHATE]	Compound NOT metabolized
CC(C)OC(=O)C(C)(C)Oc1ccc(C(=O)c2ccc(Cl)cc2)cc1 [FENOFIBRATE]	Compound NOT metabolized

Assay: The drug is tested on Clostridium asparagiforme strain: DSM15981 for biotransformation. The drug concentrations were measured before and after a 12-h incubation by liquid-chromatography-coupled mass spectrometry (LC–MS)
Format: ADME
Set-up: dose 2 uM, timepoint 0 vs 12 hours
Details: enterocloster asparagiformis, 2 µM

Structure (SMILES)	Bacterial Biotransformation
CC(C)NCC(O)c1ccc(NS(C)(=O)=O)cc1 (centres undefined) [SOTALOL]	Compound NOT metabolized
CN1CC(=O)N2[C@H](c3ccc4c(c3)OCO4)c3[nH]c4ccccc4c3C[C@@H]2C1=O	Compound NOT metabolized
O=P(O)(O)O.c1ccc(CN(CC2=NCCN2)c2ccccc2)cc1 [ANTAZOLINE PHOSPHATE]	Compound NOT metabolized
CC(C)OC(=O)C(C)(C)Oc1ccc(C(=O)c2ccc(Cl)cc2)cc1 [FENOFIBRATE]	Compound metabolized

Assay: The drug is tested on Parabacteroides merdae strain: ATCC43184 for biotransformation. The drug concentrations were measured before and after a 12-h incubation by liquid-chromatography-coupled mass spectrometry (LC–MS)
Details: 2 µM

Structure (SMILES)	Bacterial Biotransformation
CC(C)NCC(O)c1ccc(NS(C)(=O)=O)cc1 (centres undefined) [SOTALOL]	Compound NOT metabolized
CN1CC(=O)N2[C@H](c3ccc4c(c3)OCO4)c3[nH]c4ccccc4c3C[C@@H]2C1=O	Compound NOT metabolized
O=P(O)(O)O.c1ccc(CN(CC2=NCCN2)c2ccccc2)cc1 [ANTAZOLINE PHOSPHATE]	Compound NOT metabolized

Assay: The drug is tested on Collinsella intestinalis strain: DSM13280 for biotransformation. The drug concentrations were measured before and after a 12-h incubation by liquid-chromatography-coupled mass spectrometry (LC–MS)
Details: 2 µM

Structure (SMILES)	Bacterial Biotransformation
CC(C)NCC(O)c1ccc(NS(C)(=O)=O)cc1 (centres undefined) [SOTALOL]	Compound NOT metabolized
CN1CC(=O)N2[C@H](c3ccc4c(c3)OCO4)c3[nH]c4ccccc4c3C[C@@H]2C1=O	Compound NOT metabolized
O=P(O)(O)O.c1ccc(CN(CC2=NCCN2)c2ccccc2)cc1 [ANTAZOLINE PHOSPHATE]	Compound NOT metabolized
CC(C)OC(=O)C(C)(C)Oc1ccc(C(=O)c2ccc(Cl)cc2)cc1 [FENOFIBRATE]	Compound NOT metabolized

Details: bacteroides eggerthii, 12 h, 2 µM
Description: The drug is tested on Bacteroides eggerthii strain: DSM20697 for biotransformation. The drug concentrations were measured before and after a 12-h incubation by liquid-chromatography-coupled mass spectrometry (LC–MS)

Structure (SMILES)	Bacterial Biotransformation
CC(C)NCC(O)c1ccc(NS(C)(=O)=O)cc1 (centres undefined) [SOTALOL]	Compound NOT metabolized
CN1CC(=O)N2[C@H](c3ccc4c(c3)OCO4)c3[nH]c4ccccc4c3C[C@@H]2C1=O	Compound NOT metabolized
O=P(O)(O)O.c1ccc(CN(CC2=NCCN2)c2ccccc2)cc1 [ANTAZOLINE PHOSPHATE]	Compound NOT metabolized
CC(C)OC(=O)C(C)(C)Oc1ccc(C(=O)c2ccc(Cl)cc2)cc1 [FENOFIBRATE]	Compound metabolized

Assay: The drug is tested on Edwardsiella tarda strain: ATCC23685 for biotransformation. The drug concentrations were measured before and after a 12-h incubation by liquid-chromatography-coupled mass spectrometry (LC–MS)
Details: 2 µM

Structure (SMILES)	Bacterial Biotransformation
CC(C)NCC(O)c1ccc(NS(C)(=O)=O)cc1 (centres undefined) [SOTALOL]	Compound NOT metabolized
CN1CC(=O)N2[C@H](c3ccc4c(c3)OCO4)c3[nH]c4ccccc4c3C[C@@H]2C1=O	Compound NOT metabolized
O=P(O)(O)O.c1ccc(CN(CC2=NCCN2)c2ccccc2)cc1 [ANTAZOLINE PHOSPHATE]	Compound NOT metabolized
CC(C)OC(=O)C(C)(C)Oc1ccc(C(=O)c2ccc(Cl)cc2)cc1 [FENOFIBRATE]	Compound NOT metabolized

Assay: The drug is tested on Bacteroides pectinophilus strain: ATCC43243 for biotransformation. The drug concentrations were measured before and after a 12-h incubation by liquid-chromatography-coupled mass spectrometry (LC–MS)
Details: 2 µM

Structure (SMILES)	Bacterial Biotransformation
CC(C)NCC(O)c1ccc(NS(C)(=O)=O)cc1 (centres undefined) [SOTALOL]	Compound NOT metabolized
CN1CC(=O)N2[C@H](c3ccc4c(c3)OCO4)c3[nH]c4ccccc4c3C[C@@H]2C1=O	Compound NOT metabolized
O=P(O)(O)O.c1ccc(CN(CC2=NCCN2)c2ccccc2)cc1 [ANTAZOLINE PHOSPHATE]	Compound NOT metabolized
CC(C)OC(=O)C(C)(C)Oc1ccc(C(=O)c2ccc(Cl)cc2)cc1 [FENOFIBRATE]	Compound metabolized

Assay: The drug is tested on Ruminococcus gnavus strain: ATCC29149 for biotransformation. The drug concentrations were measured before and after a 12-h incubation by liquid-chromatography-coupled mass spectrometry (LC–MS)
Details: mediterraneibacter gnavus, 2 µM

Structure (SMILES)	Bacterial Biotransformation
CC(C)NCC(O)c1ccc(NS(C)(=O)=O)cc1 (centres undefined) [SOTALOL]	Compound NOT metabolized
CN1CC(=O)N2[C@H](c3ccc4c(c3)OCO4)c3[nH]c4ccccc4c3C[C@@H]2C1=O	Compound NOT metabolized
O=P(O)(O)O.c1ccc(CN(CC2=NCCN2)c2ccccc2)cc1 [ANTAZOLINE PHOSPHATE]	Compound NOT metabolized

Assay: The drug is tested on Bacteroides dorei strain: DSM17855 for biotransformation. The drug concentrations were measured before and after a 12-h incubation by liquid-chromatography-coupled mass spectrometry (LC–MS)
Details: phocaeicola dorei, 2 µM

Structure (SMILES)	Bacterial Biotransformation
O=P(O)(O)O.c1ccc(CN(CC2=NCCN2)c2ccccc2)cc1 [ANTAZOLINE PHOSPHATE]	Compound NOT metabolized

Details: limosilactobacillus reuteri cf48-3a, 12 h, 2 µM
Description: The drug is tested on Lactobacillus reuteri CF48-3A strain: BEI HM-102 for biotransformation. The drug concentrations were measured before and after a 12-h incubation by liquid-chromatography-coupled mass spectrometry (LC–MS)

Structure (SMILES)	Bacterial Biotransformation
CC(C)NCC(O)c1ccc(NS(C)(=O)=O)cc1 (centres undefined) [SOTALOL]	Compound NOT metabolized
CN1CC(=O)N2[C@H](c3ccc4c(c3)OCO4)c3[nH]c4ccccc4c3C[C@@H]2C1=O	Compound NOT metabolized
O=P(O)(O)O.c1ccc(CN(CC2=NCCN2)c2ccccc2)cc1 [ANTAZOLINE PHOSPHATE]	Compound NOT metabolized
CC(C)OC(=O)C(C)(C)Oc1ccc(C(=O)c2ccc(Cl)cc2)cc1 [FENOFIBRATE]	Compound NOT metabolized

Assay: The drug is tested on Anaerococcus hydrogenalis strain: DSM7454 for biotransformation. The drug concentrations were measured before and after a 12-h incubation by liquid-chromatography-coupled mass spectrometry (LC–MS)
Details: 2 µM

Structure (SMILES)	Bacterial Biotransformation
CC(C)NCC(O)c1ccc(NS(C)(=O)=O)cc1 (centres undefined) [SOTALOL]	Compound NOT metabolized
CN1CC(=O)N2[C@H](c3ccc4c(c3)OCO4)c3[nH]c4ccccc4c3C[C@@H]2C1=O	Compound NOT metabolized
O=P(O)(O)O.c1ccc(CN(CC2=NCCN2)c2ccccc2)cc1 [ANTAZOLINE PHOSPHATE]	Compound NOT metabolized
CC(C)OC(=O)C(C)(C)Oc1ccc(C(=O)c2ccc(Cl)cc2)cc1 [FENOFIBRATE]	Compound NOT metabolized

Assay: The drug is tested on Providencia stuartii strain: ATCC25827 for biotransformation. The drug concentrations were measured before and after a 12-h incubation by liquid-chromatography-coupled mass spectrometry (LC–MS)
Details: 2 µM

Structure (SMILES)	Bacterial Biotransformation
CC(C)NCC(O)c1ccc(NS(C)(=O)=O)cc1 (centres undefined) [SOTALOL]	Compound NOT metabolized
O=P(O)(O)O.c1ccc(CN(CC2=NCCN2)c2ccccc2)cc1 [ANTAZOLINE PHOSPHATE]	Compound NOT metabolized
CC(C)OC(=O)C(C)(C)Oc1ccc(C(=O)c2ccc(Cl)cc2)cc1 [FENOFIBRATE]	Compound NOT metabolized

Assay: The drug is tested on Bacteroides sp. WH2 strain: WH2 for biotransformation. The drug concentrations were measured before and after a 12-h incubation by liquid-chromatography-coupled mass spectrometry (LC–MS)
Details: bacteroides sp. wh2, 12 h, 2 µM

Structure (SMILES)	Bacterial Biotransformation
CC(C)NCC(O)c1ccc(NS(C)(=O)=O)cc1 (centres undefined) [SOTALOL]	Compound NOT metabolized
CN1CC(=O)N2[C@H](c3ccc4c(c3)OCO4)c3[nH]c4ccccc4c3C[C@@H]2C1=O	Compound NOT metabolized
O=P(O)(O)O.c1ccc(CN(CC2=NCCN2)c2ccccc2)cc1 [ANTAZOLINE PHOSPHATE]	Compound NOT metabolized
CC(C)OC(=O)C(C)(C)Oc1ccc(C(=O)c2ccc(Cl)cc2)cc1 [FENOFIBRATE]	Compound NOT metabolized

Assay: The drug is tested on Bifidobacterium longum subsp. Infantis strain: CCUG52486 for biotransformation. The drug concentrations were measured before and after a 12-h incubation by liquid-chromatography-coupled mass spectrometry (LC–MS)
Details: 2 µM

Structure (SMILES)	Bacterial Biotransformation
CC(C)NCC(O)c1ccc(NS(C)(=O)=O)cc1 (centres undefined) [SOTALOL]	Compound NOT metabolized
O=P(O)(O)O.c1ccc(CN(CC2=NCCN2)c2ccccc2)cc1 [ANTAZOLINE PHOSPHATE]	Compound NOT metabolized
CC(C)OC(=O)C(C)(C)Oc1ccc(C(=O)c2ccc(Cl)cc2)cc1 [FENOFIBRATE]	Compound NOT metabolized

Assay: The drug is tested on Bacteroides fragilis strain: HMW610 for biotransformation. The drug concentrations were measured before and after a 12-h incubation by liquid-chromatography-coupled mass spectrometry (LC–MS)
Details: 2 µM

Structure (SMILES)	Bacterial Biotransformation
CC(C)NCC(O)c1ccc(NS(C)(=O)=O)cc1 (centres undefined) [SOTALOL]	Compound metabolized
CN1CC(=O)N2[C@H](c3ccc4c(c3)OCO4)c3[nH]c4ccccc4c3C[C@@H]2C1=O	Compound metabolized
O=P(O)(O)O.c1ccc(CN(CC2=NCCN2)c2ccccc2)cc1 [ANTAZOLINE PHOSPHATE]	Compound NOT metabolized
CC(C)OC(=O)C(C)(C)Oc1ccc(C(=O)c2ccc(Cl)cc2)cc1 [FENOFIBRATE]	Compound NOT metabolized

Details: bacteroides stercoris, 12 h, 2 µM
Description: The drug is tested on Bacteroides stercoris strain: ATCC43183 for biotransformation. The drug concentrations were measured before and after a 12-h incubation by liquid-chromatography-coupled mass spectrometry (LC–MS)

Structure (SMILES)	Bacterial Biotransformation
CC(C)NCC(O)c1ccc(NS(C)(=O)=O)cc1 (centres undefined) [SOTALOL]	Compound NOT metabolized
CN1CC(=O)N2[C@H](c3ccc4c(c3)OCO4)c3[nH]c4ccccc4c3C[C@@H]2C1=O	Compound NOT metabolized
O=P(O)(O)O.c1ccc(CN(CC2=NCCN2)c2ccccc2)cc1 [ANTAZOLINE PHOSPHATE]	Compound NOT metabolized
CC(C)OC(=O)C(C)(C)Oc1ccc(C(=O)c2ccc(Cl)cc2)cc1 [FENOFIBRATE]	Compound NOT metabolized

Details: enterocloster bolteae, 12 h, 2 µM
Description: The drug is tested on Clostridium bolteae strain: ATCCBAA-613 for biotransformation. The drug concentrations were measured before and after a 12-h incubation by liquid-chromatography-coupled mass spectrometry (LC–MS)

Structure (SMILES)	Bacterial Biotransformation
CC(C)NCC(O)c1ccc(NS(C)(=O)=O)cc1 (centres undefined) [SOTALOL]	Compound NOT metabolized
CN1CC(=O)N2[C@H](c3ccc4c(c3)OCO4)c3[nH]c4ccccc4c3C[C@@H]2C1=O	Compound NOT metabolized
O=P(O)(O)O.c1ccc(CN(CC2=NCCN2)c2ccccc2)cc1 [ANTAZOLINE PHOSPHATE]	Compound NOT metabolized
CC(C)OC(=O)C(C)(C)Oc1ccc(C(=O)c2ccc(Cl)cc2)cc1 [FENOFIBRATE]	Compound NOT metabolized

Details: bacteroides thetaiotaomicron, 12 h, 2 µM
Description: The drug is tested on Bacteroides thetaiotaomicron strain: 7330 for biotransformation. The drug concentrations were measured before and after a 12-h incubation by liquid-chromatography-coupled mass spectrometry (LC–MS)

Structure (SMILES)	Bacterial Biotransformation
CC(C)NCC(O)c1ccc(NS(C)(=O)=O)cc1 (centres undefined) [SOTALOL]	Compound metabolized
CN1CC(=O)N2[C@H](c3ccc4c(c3)OCO4)c3[nH]c4ccccc4c3C[C@@H]2C1=O	Compound metabolized
CC(C)OC(=O)C(C)(C)Oc1ccc(C(=O)c2ccc(Cl)cc2)cc1 [FENOFIBRATE]	Compound NOT metabolized
